Structures can show the parent of a compound that is named as a salt.
How the values were obtained:
[1] = target: Human recombinant PDE10A2 (Homo sapiens (Human), UniProt Q9Y233); assay: In vitro hPDE10a: human recombinant PDE10A2 scintillation proximity assay, IC50; assay type: biochemical; details: human recombinant PDE10A2, SPA, 60 nM cAMP; read-out: hPDE10a2 IC50
Summary of the method: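 Purified recombinant human PDE10A2 (Ni-sepharose) was assayed by SPA, counting [3H]-AMP product captured on yttrium silicate beads added in zinc sulphate stop solution. Inhibition was expressed as % of activity without compound, with a no-enzyme low control. Repeat data points were aggregated.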

[2] = rat, in vivo
Description: PDE10a-Brain Permeability Assay
(§1) A. PDE10a-Perfused Brain Permeability Study Protocol
(§2) Drug administration by oral gavage, subcutaneous injection or intravenous was carried out using male Sprague Dawley rats under IACUC protocol (SH-MET3010). Male Sprague Dawley rats (Charles River) ˜300-350 g were maintained on a 4% standard rodent diet (Test Diet 5001). They are allowed ad libitum access to water and food. Room temperature was maintained at 64° F. and humidity at 30-70%.
(§3) Three animals per compound were provided a dose of 2 mg/mL in 20% HpbCD/Tris pH 8 by tail i.v. or 30 mpk p.o. or s.c. in 20% HpbCD/Tris pH 8, with PDE10a antagonists. A first blood sample was collected at 30 min via retro-orbital sinus (anesthetic by 70% CO2/30% O2) into heparinzed plasma separator tubes. The blood was centrifuged and 100 μL plasma was placed into a 96 well plate and saved on dry ice.
(§4) After the 120 min, the final blood sample was collected via retro-orbital sinus under anesthesia by IP 0.5 cc injection of a 4/1 mixture of Ketaset: AnaSed [(prepared 10 mL Ketaset (100 mg/mL Ketamine)+2.5 mL AnaSed (20 mg/mL Xylazine)]. The rats were then perfused with 400 mL heparinized saline (10,000 units/L) through the left ventricle of the heart; the brains were then removed (not including the medulla), weighed and homogenized in PBS (4 mL/g tissue). The samples were stored at −80° C. and submitted for chemical analysis of blood and brain concentrations. Endpoints of sample analysis consists of the plasma concentrations at 30 and 120 min, plus brain concentrations at 120 min.

[3] = PDE10a perfused brain permeability study: plasma concentrations at 30 and 120 min, brain concentration at 120 min, brain/plasma ratio; details: male, Sprague-Dawley, rat; for Kp at 2 h: brain/plasma
Description: PDE10a-Brain Permeability Assay
as §1, §2, §3, §4

[4] = target: Rat recombinant PDE10a (rPDE10a) (Rattus norvegicus (Rat), UniProt Q9QYJ6); assay: In vitro assay PDE10a: rat recombinant PDE10a SPA with 3H-cAMP substrate, IC50; assay type: biochemical; details: 60 nM cAMP, read-out: rPDE10a2 IC50
Summary of the method: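 Enzyme expressed in Sf9 cells via baculovirus and Ni-sepharose purified; reaction with 3H-cAMP ran 60 min at rt, stopped with PDE SPA beads. Compounds diluted in DMSO at 100-fold final concentration; blanks omitted enzyme.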

Chain of Human recombinant PDE10A2 (Q9Y233 267-1055): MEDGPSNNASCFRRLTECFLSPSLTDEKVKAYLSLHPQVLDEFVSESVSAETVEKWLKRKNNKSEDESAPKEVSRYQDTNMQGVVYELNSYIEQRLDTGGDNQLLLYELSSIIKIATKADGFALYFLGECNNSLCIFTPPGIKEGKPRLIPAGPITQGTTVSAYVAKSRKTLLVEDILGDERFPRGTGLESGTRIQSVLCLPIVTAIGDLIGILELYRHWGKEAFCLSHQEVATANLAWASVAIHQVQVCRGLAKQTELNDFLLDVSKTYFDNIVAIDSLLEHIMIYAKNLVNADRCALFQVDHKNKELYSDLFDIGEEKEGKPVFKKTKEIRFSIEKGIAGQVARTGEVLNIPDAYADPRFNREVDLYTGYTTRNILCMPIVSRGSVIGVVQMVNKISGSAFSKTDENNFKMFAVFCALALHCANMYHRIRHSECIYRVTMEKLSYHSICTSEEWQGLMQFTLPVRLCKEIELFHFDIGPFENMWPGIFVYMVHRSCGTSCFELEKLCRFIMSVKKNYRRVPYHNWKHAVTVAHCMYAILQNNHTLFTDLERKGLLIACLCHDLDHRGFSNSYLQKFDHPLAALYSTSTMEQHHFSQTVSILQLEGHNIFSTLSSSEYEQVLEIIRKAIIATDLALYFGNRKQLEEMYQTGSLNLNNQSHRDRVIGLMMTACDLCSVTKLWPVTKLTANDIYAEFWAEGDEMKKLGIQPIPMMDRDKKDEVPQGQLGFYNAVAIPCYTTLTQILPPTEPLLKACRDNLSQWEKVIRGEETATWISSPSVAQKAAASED
Chain of Rat recombinant PDE10a (rPDE10a) (Q9QYJ6 whole entry): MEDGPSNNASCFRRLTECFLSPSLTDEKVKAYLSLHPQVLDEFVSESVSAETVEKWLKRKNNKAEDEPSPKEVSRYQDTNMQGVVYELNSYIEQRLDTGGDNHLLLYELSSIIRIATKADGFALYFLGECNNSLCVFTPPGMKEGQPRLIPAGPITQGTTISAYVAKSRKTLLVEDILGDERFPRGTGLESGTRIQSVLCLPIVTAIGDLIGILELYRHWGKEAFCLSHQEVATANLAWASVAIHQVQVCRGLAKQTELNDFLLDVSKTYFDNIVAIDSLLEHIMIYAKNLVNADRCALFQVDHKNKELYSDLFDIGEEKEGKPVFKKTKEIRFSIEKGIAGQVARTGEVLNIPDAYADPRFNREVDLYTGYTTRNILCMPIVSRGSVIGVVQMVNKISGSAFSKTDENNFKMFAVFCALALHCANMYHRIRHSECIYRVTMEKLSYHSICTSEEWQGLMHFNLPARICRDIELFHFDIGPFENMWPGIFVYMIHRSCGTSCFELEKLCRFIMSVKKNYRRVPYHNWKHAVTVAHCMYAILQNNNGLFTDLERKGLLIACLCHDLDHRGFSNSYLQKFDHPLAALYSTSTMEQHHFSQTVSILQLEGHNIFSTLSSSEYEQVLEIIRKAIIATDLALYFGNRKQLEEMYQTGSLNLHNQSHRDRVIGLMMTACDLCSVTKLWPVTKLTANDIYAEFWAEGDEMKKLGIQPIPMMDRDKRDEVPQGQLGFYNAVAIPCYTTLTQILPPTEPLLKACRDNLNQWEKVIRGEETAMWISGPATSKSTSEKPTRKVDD

Row | Compound | IC50 [1] | Brain conc 2 h [2] | Plasma conc 2 h [2] | Ratio Br/Pl Mean 2 h [2] | concentration at 2 h ([3]; brain) | Kp at 2 h [3] | concentration at 2 h ([3]; plasma) | IC50 [4]
1 | O=C(O)CCc1ccc(-c2c([C@H]3C[C@H](c4ccc5ccccc5n4)C3)nc3c(N4CCOCC4)ccnn23)cc1 [compound 169, 3-(4-(8-Morpholino-2-((1r,3r)-3-(quinolin-2-yl)cyclobutyl)imidazo[1,2-b]pyridazin-3-yl)phenyl)propanoic acid] | 2 nM | 0 ng/g | 106 ng/mL | 0 |  |  |  | 
2 | CS(=O)(=O)NC(=O)c1ccc(-c2c(/C=C/c3ccc4ccccc4n3)nc3c(N4CCOCC4)ccnn23)cn1 [Cpd 27, (E)-N-(Methylsulfonyl)-5-(8-morpholino-2-(2-(quinolin-2-yl)vinyl)imidazo[1,2-b]pyridazin-3-yl)picolinamide trifluoroacetic acid salt] | 2 nM |  |  |  | 1.69 ng/g | 0.005 | 438 ng/mL | 2 nM
3 | CC(=O)NS(=O)(=O)c1ccc(-c2c(CCc3ccc4ccccc4n3)nc3c(N4CCOCC4)ccnn23)cc1 [compound 42, N-((4-(8-Morpholino-2-(2-(quinolin-2-yl)ethyl)imidazo[1,2-b]pyridazin-3-yl)phenyl)sulfonyl)acetamide] | 1 nM |  |  |  | 0 ng/g | 0 | 34 ng/mL | 1 nM
4 | CS(=O)(=O)NC(=O)c1ccc(-c2c(CCc3ccc4ccccc4n3)nc3c(N4CCOCC4)ccnn23)cn1 [Cpd 30, N-(Methylsulfonyl)-5-(8-morpholino-2-(2-(quinolin-2-yl)ethyl)imidazo[1,2-b]pyridazin-3-yl)picolinamide trifluoroacetic acid salt] | 1 nM |  |  |  | 40.2 ng/g | 2.5 | 107 ng/mL | 2 nM
5 | O=C(O)CCc1ccc(-c2c(/C=C/c3ccc4ccccc4n3)nc3c(N4CCOCC4)ccnn23)cc1 [Cpd 128, 3-(4-{8-Morpholin-4-yl-2-[(E)-2-quinolin-2-ylethenyl]imidazo[1,2-b]pyridazin-3-yl}phenyl)propanoic acid] | 5 nM |  |  |  | 0 ng/g | 0 | 314 ng/mL | 5 nM
6 | CS(=O)(=O)NC(=O)c1ccc(-c2c(CCc3ccc4ccccc4n3)nc3c(N4CCOCC4)ccnn23)cc1 [compound 43, N-(Methylsulfonyl)-4-(8-morpholino-2-(2-(quinolin-2-yl)ethyl)imidazo[1,2-b]pyridazin-3-yl)benzamide] | 2 nM |  |  |  | 0 ng/g | 0 | 1.8 ng/mL | 1 nM
7 | Oc1nc(O)c(-c2ccc(-c3c(/C=C/c4ccc5ccccc5n4)nc4c(N5CCOCC5)ccnn34)cc2)o1 [Cpd 65, 5-(4-{8-Morpholin-4-yl-2-[(E)-2-quinolin-2-ylethenyl]imidazo[1,2-b]pyridazin-3-yl}phenyl)-1,3-oxazole-2,4-diol] | 10 nM |  |  |  | 14.5 ng/g | 0.01 | 1610 ng/mL | 8 nM
8 | O=C(O)CCNC(=O)c1ccc(-c2c(/C=C/c3ccc4ccccc4n3)nc3c(N4CCOCC4)ccnn23)cc1 [compound 44, (E)-3-(4-(8-Morpholino-2-(2-(quinolin-2-yl)vinyl)imidazo[1,2-b]pyridazin-3-yl)benzamido)propanoic acid] | 4 nM |  |  |  | 0 ng/g | 0 | 83 ng/mL | 1 nM
9 | OC(c1ccc(-c2c(/C=C/c3ccc4ccccc4n3)nc3c(N4CCOCC4)ccnn23)cc1)(C(F)(F)F)C(F)(F)F [compound 52, (E)-1,1,1,3,3,3-Hexafluoro-2-(4-(8-morpholino-2-(2-(quinolin-2-yl)vinyl)imidazo[1,2-b]pyridazin-3-yl)phenyl)propan-2-ol] | 52 nM |  |  |  | 54 ng/g | 0.16 | 326 ng/mL | 41 nM
10 | O=C(O)c1ccc(-c2c(/C=C/c3ccc4c(n3)CCCC4)nc3c(N4CCOCC4)ccnn23)cc1 [Cpd 76, (E)-4-(8-Morpholino-2-(2-(5,6,7,8-tetrahydroquinolin-2-yl)vinyl)imidazo[1,2-b]pyridazin-3-yl)benzoic acid] | 5 nM |  |  |  | 9.3 ng/g | 0.02 | 568 ng/mL | 7 nM
